The structures appear in SMILES notation.

This experiment deals with ROCK2 (human) (UniProt O75116). Kind of experiment: Inhibition of ROCK2 Kinase Activity.
Sequence of ROCK2 (human) (O75116 whole entry, looked up): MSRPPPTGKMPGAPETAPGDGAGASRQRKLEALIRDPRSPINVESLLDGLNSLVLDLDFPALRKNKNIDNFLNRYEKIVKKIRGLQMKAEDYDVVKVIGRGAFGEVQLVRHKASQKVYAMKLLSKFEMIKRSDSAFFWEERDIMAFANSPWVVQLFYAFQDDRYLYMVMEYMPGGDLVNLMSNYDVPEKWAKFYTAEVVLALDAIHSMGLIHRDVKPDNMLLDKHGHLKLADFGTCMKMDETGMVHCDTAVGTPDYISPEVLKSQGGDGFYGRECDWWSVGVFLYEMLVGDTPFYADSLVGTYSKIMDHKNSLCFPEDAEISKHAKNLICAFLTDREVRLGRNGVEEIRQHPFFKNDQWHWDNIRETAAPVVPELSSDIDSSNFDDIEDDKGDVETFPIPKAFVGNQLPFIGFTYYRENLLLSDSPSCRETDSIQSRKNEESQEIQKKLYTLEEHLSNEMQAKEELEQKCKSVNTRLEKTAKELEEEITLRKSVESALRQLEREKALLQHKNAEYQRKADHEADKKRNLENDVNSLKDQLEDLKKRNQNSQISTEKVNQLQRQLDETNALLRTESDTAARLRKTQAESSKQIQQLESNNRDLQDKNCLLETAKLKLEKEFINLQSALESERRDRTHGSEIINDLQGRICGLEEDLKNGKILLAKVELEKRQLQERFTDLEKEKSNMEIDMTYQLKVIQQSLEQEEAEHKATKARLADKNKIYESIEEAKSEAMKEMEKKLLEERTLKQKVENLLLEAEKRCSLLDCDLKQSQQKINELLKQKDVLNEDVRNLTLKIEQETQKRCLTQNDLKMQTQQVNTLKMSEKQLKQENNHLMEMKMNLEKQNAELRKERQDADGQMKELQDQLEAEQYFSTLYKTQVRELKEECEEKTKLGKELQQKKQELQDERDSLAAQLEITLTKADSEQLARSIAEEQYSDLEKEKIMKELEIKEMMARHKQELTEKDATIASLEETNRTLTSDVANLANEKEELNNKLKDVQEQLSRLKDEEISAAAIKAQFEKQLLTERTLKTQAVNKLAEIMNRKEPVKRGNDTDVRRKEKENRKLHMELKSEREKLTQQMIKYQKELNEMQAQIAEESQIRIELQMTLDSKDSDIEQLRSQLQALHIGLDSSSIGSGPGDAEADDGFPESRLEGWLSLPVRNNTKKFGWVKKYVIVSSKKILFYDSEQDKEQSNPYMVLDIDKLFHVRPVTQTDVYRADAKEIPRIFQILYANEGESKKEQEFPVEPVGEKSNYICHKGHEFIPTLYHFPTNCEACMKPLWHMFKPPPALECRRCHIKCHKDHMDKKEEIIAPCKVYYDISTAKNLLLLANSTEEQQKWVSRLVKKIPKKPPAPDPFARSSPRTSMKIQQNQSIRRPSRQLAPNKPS
In turn, `CC(C)(C(=O)NCC(N)c1ccc(C(=O)Nc2ccncc2)cc1)c1ccc(F)cc1Cl` (stereo not given) gave an IC50 of 50 to 500 nM.
As to `CC1CC1C(=O)NCC(N)c1ccc(C(=O)Nc2ccncc2)cc1` (stereo not given), the 50% inhibitory concentration (IC50) fell in the range of 500 to 5000 nM.
Consider `NC(CC(=O)NCCc1cccc(Cl)c1)c1ccc(C(=O)Nc2ccncc2)cc1` (stereo not given), for which the half-inhibitory concentration (IC50) was in the range of 50 to 500 nM.
Molecule `CS(=O)(=O)c1ccc(CNC(=O)CC(N)c2ccc(C(=O)Nc3ccncc3)cc2)cc1` (stereo not given) displayed a 50% inhibitory concentration (IC50) of 50 to 500 nM.
Regarding `CC(C)=NOC(C)C(=O)NCC(N)c1ccc(C(=O)Nc2ccncc2)cc1` (stereo not given), the IC50 lay within 500 to 5000 nM.
`COc1cc(CCNC(=O)CC(N)c2ccc(C(=O)Nc3ccncc3)cc2)cc(OC)c1` (stereo not given): the IC50 lay in the range of 50 to 500 nM.
With `NC(CC(=O)NCCc1ccc2c(c1)OCO2)c1ccc(C(=O)Nc2ccncc2)cc1` (stereo not given), the IC50 lay within 50 to 500 nM.
`CN(CC(N)c1ccc(C(=O)Nc2ccncc2)cc1)C(=O)Cc1ccc(Cl)c(Cl)c1` (stereo not given) had an IC50 of 500 to 5000 nM.
As for `NC(CNC(=O)C1(c2ccc(Cl)c(Cl)c2)CC1)c1ccc(C(=O)Nc2ccncc2)cc1` (stereo not given), the half-maximal inhibitory concentration (IC50) fell in the range of 50 to 500 nM.
The molecule `COCC(C)NC(=O)CC(N)c1ccc(C(=O)Nc2ccncc2)cc1` (stereo not given) registered an IC50 of 50 to 500 nM.
For the molecule `NC(c1ccc(C(=O)Nc2ccncc2)cc1)C1CCCN1C(=O)C1CCSc2ccc(F)cc21` (stereo not given), the concentration for half-maximal inhibition (IC50) fell in the range of 500 to 5000 nM.
On to `CN(CC(N)c1ccc(C(=O)Nc2ccncc2)cc1)C(=O)C1CC(=O)c2ccccc21` (stereo not given), for which the IC50 was 500 to 5000 nM.
In turn, `NC(c1ccc(C(=O)Nc2ccncc2)cc1)C1CCCN1C(=O)C1(c2ccc(F)c(Cl)c2)CC1` (stereo not given) displayed a concentration for half-maximal inhibition (IC50) of 500 to 5000 nM.
For `NC(CC(=O)NCCc1ccc2c(c1)Cc1ccccc1-2)c1ccc(C(=O)Nc2ccncc2)cc1` (stereo not given), the IC50 was 50 to 500 nM.
For the molecule `CC(C)(C)c1ccc(CCNC(=O)CC(N)c2ccc(C(=O)Nc3ccncc3)cc2)cc1` (stereo not given), the IC50 is 50 to 500 nM.
The same measure for `COc1ccccc1C(=O)NCC(N)c1ccc(C(=O)Nc2ccncc2)cc1` (stereo not given): 500 to 5000 nM; for `CN(CC(N)c1ccc(C(=O)Nc2ccncc2)cc1)C(=O)Cc1ccc(Cl)cc1F` (stereo not given): 500 to 5000 nM; for `CN(CC(N)c1ccc(C(=O)Nc2ccncc2)cc1)C(=O)C1(c2ccc(F)cc2)CCCC1` (stereo not given): 500 to 5000 nM.
As to `NC(CNC(=S)Nc1cccc2ccccc12)c1ccc(C(=O)Nc2ccncc2)cc1` (stereo not given), the IC50 lay within 50 to 500 nM.
`NC(CNC(=O)C1(c2ccc(Cl)cc2F)CC1)c1ccc(C(=O)Nc2ccncc2)cc1` (stereo not given) displayed an IC50 of 50 to 500 nM.
The same measure for `NC(CC(=O)NCc1cc(Cl)ccc1Cl)c1ccc(C(=O)Nc2ccncc2)cc1` (stereo not given): 50 to 500 nM.
Take `NC(c1ccc(C(=O)Nc2ccncc2)cc1)C1CCCN1C(=O)C1(c2ccc(F)cc2)CC1` (stereo not given): the half-maximal inhibitory concentration (IC50) was in the range of 500 to 5000 nM.
With `NC(CC(=O)NCc1cccc(Cl)c1Cl)c1ccc(C(=O)Nc2ccncc2)cc1` (stereo not given), the IC50 was in the range of 50 to 500 nM.
In the case of `CCNS(=O)(=O)c1cccc(C(=O)NCC(N)c2ccc(C(=O)Nc3ccncc3)cc2)c1` (stereo not given), the IC50 is 500 to 5000 nM.
`NC(CC(=O)NCCc1ccc(Cl)cc1)c1ccc(C(=O)Nc2ccncc2)cc1` (stereo not given) showed an IC50 of 50 to 500 nM.
The same measure for `NC(CNC(=O)CC1CCCC1)c1ccc(C(=O)Nc2ccncc2)cc1` (stereo not given): 500 to 5000 nM; for `CN(CC(N)c1ccc(C(=O)Nc2ccncc2)cc1)C(=O)C1(c2ccc(Cl)cc2)CCCC1` (stereo not given): 500 to 5000 nM.
Molecule `CN(CC(N)c1ccc(C(=O)Nc2ccncc2)cc1)C(=O)Cc1c(F)cccc1Cl` (stereo not given) yielded an IC50 of 500 to 5000 nM.
The figure for `NC(c1ccc(C(=O)Nc2ccncc2)cc1)C1CCCN1C(=O)C1(c2ccc(F)cc2Cl)CC1` (stereo not given) is 500 to 5000 nM.
For `NC(CNC(=O)C1(c2ccc(Cl)cc2)CC1)c1ccc(C(=O)Nc2ccncc2)cc1` (stereo not given), the IC50 fell in the range of 50 to 500 nM.
The same measure for `NC(CNC(=O)C1(c2ccsc2)CC1)c1ccc(C(=O)Nc2ccncc2)cc1` (stereo not given): 50 to 500 nM.
`NC(c1ccc(C(=O)Nc2ccncc2)cc1)C1CCCN1C(=O)Cc1cccc(Cl)c1F` (stereo not given) returned an IC50 of 500 to 5000 nM.
`Cc1cc(Cl)cc(Cl)c1CNC(=O)CC(N)c1ccc(C(=O)Nc2ccncc2)cc1` (stereo not given) had an IC50 of 50 to 500 nM.
The figure for `NC(CNC(=O)c1cccnc1)c1ccc(C(=O)Nc2ccncc2)cc1` (stereo not given) is 500 to 5000 nM.
As to `NC(CNC(=O)c1ccc(C(=O)c2ccccc2)cc1)c1ccc(C(=O)Nc2ccncc2)cc1` (stereo not given), the IC50 is 500 to 5000 nM.

These data come from the Kinase Knowledgebase extract (Sharma et al. 2016).
